Test results: patent publication US11807612B2, “Heterocyclic compound and salt thereof, and luminescent substrate composition” (The University of Electro-Communications, priority 2020, dated 2023)

Legend:
firefly luciferase (Luc) = firefly luciferase (Luc) (Photinus pyralis, UniProt P08659); details: firefly luminescence system; background, PTL 1 to 3; cited from earlier work
[1] = target: T1, Ppy luciferase (derived from North American firefly Photinus pyralis) (Photinus pyralis, UniProt P08659); assay: Luminescence spectrum measurement of luminescent substrates with Ppy luciferase, ATP-Mg; format: biochemical; details: for peak top wavelength of luminescence spectrum: substrate solution 100 μM, 1 mg/mL Ppy luciferase, 200 μM ATP-Mg, KPB pH 8.0, room temperature, 180 seconds, FIG. 1
T1 construct: purchased Promega Corporation E1701
Method: The luminescent substrates represented by structural formulae (1-1) and (1-2) that were synthesized as described above, a luminescent substrate represented by the following structural formula (b), and natural firefly luciferin (LH2, produced by Wako Pure Chemical Industries, Ltd.) represented by the following structural formula (d) were each used to measure a luminescence spectrum. Note that the luminescent substrate represented by structural formula (b) was prepared in accordance with Example 1 of JP2014-218456A (PTL 2).
A weak emission fluorescence spectrometer AB-1850 produced by ATTO Corporation was used to measure a luminescence spectrum. Each measured spectrum is a spectrum that has been corrected for detector characteristics (data interval 0.25 nm, measurement range 400 nm to 750 nm).
Recombinant luciferase (QuantiLum® (QuantiLum is a registered trademark in Japan, other countries, or both), catalogue no. E1701) produced by Promega Corporation
After mixing 5 μL of KPB solution (pH 8.0, 500 mM), 5 μL of luminescent substrate solution (100 μM), 5 μL of 1 mg/mL Ppy luciferase solution, and 10 μL of 200 μM ATP-Mg solution at room temperature, luminescence spectrum measurement was performed for 180 seconds using the luminescence spectrum measurement apparatus (AB-1850). The luminescence intensity was compared by the peak top value at this time. The results are illustrated in FIG. 1 and FIG. 2.
FIG. 1 is a luminescence spectrum normalized to give a maximum value for luminescence intensity of 1, and FIG. 2 is a luminescence spectrum illustrating luminescence intensity at each wavelength.

T1 sequence (P08659 whole entry): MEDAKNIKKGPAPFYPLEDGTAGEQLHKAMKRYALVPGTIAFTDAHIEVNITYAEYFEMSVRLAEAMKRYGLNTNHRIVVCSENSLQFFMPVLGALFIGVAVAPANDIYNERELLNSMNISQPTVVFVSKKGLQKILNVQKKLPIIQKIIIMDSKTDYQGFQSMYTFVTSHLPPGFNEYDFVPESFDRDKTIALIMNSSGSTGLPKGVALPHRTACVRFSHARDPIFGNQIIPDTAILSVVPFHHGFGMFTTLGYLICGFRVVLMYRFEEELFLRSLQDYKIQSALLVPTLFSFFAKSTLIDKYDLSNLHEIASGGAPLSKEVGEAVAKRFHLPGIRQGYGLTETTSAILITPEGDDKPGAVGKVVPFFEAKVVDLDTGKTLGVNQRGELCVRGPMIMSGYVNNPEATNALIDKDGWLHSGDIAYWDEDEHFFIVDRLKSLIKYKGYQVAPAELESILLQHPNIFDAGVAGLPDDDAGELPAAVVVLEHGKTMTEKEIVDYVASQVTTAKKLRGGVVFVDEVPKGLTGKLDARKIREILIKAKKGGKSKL
firefly luciferase (Luc), sequence (P08659 whole entry): as above

Structure (SMILES) | maximum wavelength of luminescence spectrum / wavelength of emitted light (firefly luciferase (Luc)) | luminescence intensity (peak top value) relative to luminescent substrate of structural formula (b) ([1]; same conditions, FIGS. 1 and 2) | luminescence intensity (peak top value) relative to natural firefly luciferin ([1]; same conditions, FIGS. 1 and 2) | peak top wavelength of luminescence spectrum [1] | luminescence wavelength compared with luminescent substrate of structural formula (b) ([1]; same conditions, FIGS. 1 and 2)
CN(C)c1ccc(/C=C/C=C/C2=N[C@@H](C(=O)O)CS2)cc1 [structural formula (a)] | roughly 670 nm | – | – | – | –
CN(C)c1cnc(/C=C/C=C/C2=N[C@@H](C(=O)O)CS2)s1 [structural formula (1-2), (S)-2-((1E,3E)-4-(5-(dimethylamino)thiazol-2-yl)buta-1,3-dien-1-yl)-4,5-dihydrothiazole-4-carboxylic acid] | – | approximately four times higher | approximately half | approximately 680 nm | –
CN(C)c1ccc(/C=C/C=C/C2=N[C@@H](C(=O)O)CS2)nc1 [structural formula (c)] | roughly 670 nm | – | – | – | –
CN(C)c1ncc(/C=C/C=C/C2=N[C@@H](C(=O)O)CS2)s1 [structural formula (1-1), (S)-2-((1E,3E)-4-(2-(dimethylamino)thiazol-5-yl)buta-1,3-dien-1-yl)-4,5-dihydrothiazole-4-carboxylic acid] | – | approximately four times higher | approximately half | approximately 630 nm | shorter wavelength
O=C(O)[C@H]1CSC(c2nc3ccc(O)cc3s2)=N1 [natural firefly luciferin, firefly luciferin] | approximately 560 nm | – | – | – | –
